We go through seven compounds from PubChem BioAssay (NCI).

Where “and” joins values, the source holds several entries; their conditions need not be identical. Identical values can stand only once.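 Method: 48-hour compound exposure of cells in 96-well plates, five concentrations, linear interpolation of endpoints. GI50 is the concentration that inhibits growth by half. The concentration for full growth arrest is given as TGI.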 A value given as a limit tells only on which side of the number the result lay.

Among the test systems are IGROV1 ovarian; HOP-92 NSCLC; NCI-H23 lung; CAKI-1 renal; SK-MEL-5 melanoma; PC-3 prostate; SW-620 colon; HCC-2998 colon; TK-10 renal; LOX IMVI melanoma.
Holding throughout (assay): NCI anticancer screen, dose series, 48 h

On to `Cc1nn(-c2ccc(F)cc2)c2ncnc(Nc3ccc(NC(=O)Nc4ccc(Cl)c(C(F)(F)F)c4)cc3)c12`, for which the GI50 was 2.66 µM with IGROV1 ovarian; 1730 nM in the test on HOP-92 NSCLC; 1.91 µM with NCI-H23 lung; 1.83 µM with CAKI-1 renal; 3.39 µM with SK-MEL-5 melanoma; 1.03 µM in the test with PC-3 prostate. In addition, the GI50 in the test on SW-620 colon was 2.93 µM; in the test with HCC-2998 colon, 2570 nM; with TK-10 renal it was 2850 nM; in the test on LOX IMVI melanoma it was 1960 nM. Moreover, the TGI with IGROV1 ovarian turned out to be 11.2 µM; with HOP-92 NSCLC, 4.59 µM; in the test on NCI-H23 lung, 4.6 µM; in the test with CAKI-1 renal it was 4.75 µM; with SK-MEL-5 melanoma it was 12.1 µM; in the test with PC-3 prostate, 3.98 µM. Moreover, the TGI with SW-620 colon worked out at 10.8 µM; with HCC-2998 colon, 10.6 µM; in the test with TK-10 renal, 10.4 µM; in the test with LOX IMVI melanoma, 4.48 µM.

On to `CSc1nc(SC)c2c(CN=[N+]=[N-])c(Br)n(Cc3ccccc3)c2n1`, for which the TGI in the test on IGROV1 ovarian was over 100 µM; in the test on HOP-92 NSCLC it was 83.8 µM; in the test with NCI-H23 lung, over 100 µM; in the test on CAKI-1 renal, over 100 µM; in the test with SK-MEL-5 melanoma, over 100 µM; in the test on PC-3 prostate, over 100 µM. Moreover, the TGI in the test with SW-620 colon, with HCC-2998 colon, in the test on TK-10 renal and in the test on LOX IMVI melanoma was over 100 µM throughout.

Take `COC1(C(=O)N2Cc3nc(Cl)nc(N[C@H](C)c4cc(N)cc(C(F)(F)F)c4)c3C2)CCOCC1`: the GI50 with IGROV1 ovarian is 13.5 µM; in the test with HOP-92 NSCLC it was 356 nM; with NCI-H23 lung, 19.7 µM; in the test with CAKI-1 renal it was 25.4 µM; in the test on SK-MEL-5 melanoma, 14.8 µM; in the test with PC-3 prostate, 21.3 µM. For the same compound, the GI50 was 24.8 µM in the test on SW-620 colon, 20800 nM in the test on HCC-2998 colon, 1230 nM in the test on TK-10 renal and 15600 nM in the test on LOX IMVI melanoma. Besides, the TGI in the test on IGROV1 ovarian was 43.8 µM; in the test on HOP-92 NSCLC, 21 µM; in the test with NCI-H23 lung, 72.4 µM; in the test on CAKI-1 renal, over 100 µM; with SK-MEL-5 melanoma, 28.1 µM; in the test on PC-3 prostate it was over 91.8 µM. In addition, the TGI in the test with SW-620 colon is over 86.3 µM; in the test with HCC-2998 colon it was 59.2 µM; in the test on TK-10 renal it was 45.8 µM; with LOX IMVI melanoma it was 29.2 µM.

Take `CNC(=O)c1ccccc1CC1(O)c2ccccc2Oc2ccccc21`: the GI50 in the test on IGROV1 ovarian is 26.4 µM; in the test on HOP-92 NSCLC, 7520 nM; in the test with NCI-H23 lung it was 26 µM; in the test on CAKI-1 renal, 21.7 µM; with SK-MEL-5 melanoma it was 3.2 µM; in the test on PC-3 prostate it was 13.1 µM. The GI50 in the test with SW-620 colon was 14 µM; with HCC-2998 colon, 29000 nM; with TK-10 renal it was 26600 nM; with LOX IMVI melanoma, 29100 nM. The TGI is over 100 µM with IGROV1 ovarian; 44.4 µM in the test on HOP-92 NSCLC; over 100 µM in the test on NCI-H23 lung; over 100 µM with CAKI-1 renal; 13 µM in the test on SK-MEL-5 melanoma; 99.3 µM in the test on PC-3 prostate. For the same compound, the TGI with SW-620 colon was over 100 µM; with HCC-2998 colon it was 91.3 µM; with TK-10 renal, 89.9 µM; in the test with LOX IMVI melanoma, over 100 µM.

As to `O=c1cc(-c2cccc(F)c2)[nH]c2cc3c(cc12)OCO3`, the TGI was over 57 µM in the test on IGROV1 ovarian; 5.23 µM with HOP-92 NSCLC; 2.43 µM and 2.83 µM with NCI-H23 lung; over 53.3 µM with CAKI-1 renal; over 89.5 µM with PC-3 prostate; over 100 µM in the test with SW-620 colon. Besides, the TGI in the test with HCC-2998 colon was 0.357 µM and 0.538 µM; in the test on TK-10 renal it was 75 µM and 44 µM; in the test with LOX IMVI melanoma, 6.4 µM and > 54.4 µM. The GI50 in the test with SK-MEL-5 melanoma was 0.0639 µM; in the test with HCC-2998 colon it was 152 nM; in the test on TK-10 renal, 4710 nM; in the test on LOX IMVI melanoma, 326 nM.

For the compound `CN1CCN(Cc2ccc(C(=O)Nc3cncc(C#Cc4cnc(N)c5ccccc45)c3)cc2C(F)(F)F)CC1`, the GI50 in the test on IGROV1 ovarian was 1.87 µM; in the test with HOP-92 NSCLC it was 2420 nM; in the test with NCI-H23 lung, 1.85 µM; in the test on CAKI-1 renal, 1.7 µM; in the test with SK-MEL-5 melanoma, 1.73 µM; in the test on PC-3 prostate, 2.74 µM. Besides, the GI50 in the test with SW-620 colon is 1.78 µM; in the test on HCC-2998 colon, 2190 nM; with TK-10 renal, 1990 nM; in the test with LOX IMVI melanoma, 1750 nM. Also, the TGI in the test on IGROV1 ovarian is 4.43 µM; in the test with HOP-92 NSCLC, 11.3 µM; in the test on NCI-H23 lung it was 4.41 µM; with CAKI-1 renal, 3.69 µM; in the test on SK-MEL-5 melanoma, 3.12 µM; in the test on PC-3 prostate, 10.1 µM. Also, the TGI in the test with SW-620 colon was found to be 3.89 µM; with HCC-2998 colon, 4.74 µM; in the test on TK-10 renal it was 3.74 µM; in the test with LOX IMVI melanoma, 3.17 µM.

For the compound `CCn1c(-c2nonc2N)nc2c(C#CCN)ncc(OCCCN)c21`, the GI50 with IGROV1 ovarian is over 25 µM; with HOP-92 NSCLC, 4640 nM; with NCI-H23 lung it was over 25 µM; in the test on CAKI-1 renal, over 25 µM; in the test with SK-MEL-5 melanoma it was over 25 µM; in the test on PC-3 prostate, over 25 µM. The GI50 is over 25 µM with SW-620 colon, over 25000 nM in the test with HCC-2998 colon, over 25000 nM with TK-10 renal and over 25000 nM with LOX IMVI melanoma. Further, the TGI in the test on IGROV1 ovarian, in the test on HOP-92 NSCLC, with NCI-H23 lung, in the test with CAKI-1 renal, in the test with SK-MEL-5 melanoma and in the test on PC-3 prostate was over 25 µM throughout. For the same compound, the TGI in the test with SW-620 colon, with HCC-2998 colon, in the test with TK-10 renal and in the test on LOX IMVI melanoma was over 25 µM throughout.
